Measurements: ChEMBL document CHEMBL1156390, “Phyllanemblinins A-F, new ellagitannins from Phyllanthus emblica” (J Nat Prod, 2001)
Active and inactive are the calls of the source. The calls are words filed in the database; no cut-off is given here.

Tested on: Radical scavenging activity
Assay: Antioxidant activity assessed as DPPH radical scavenging activity
Assay type: functional

O=C(O)C[C@@H]1C(=O)O[C@H]2[C@@H]3OC(=O)c4cc(O)c(O)c(O)c4-c4c(cc(O)c(O)c4O)C(=O)OC[C@H]2O[C@@H](OC(=O)c2cc(O)c(O)c(O)c2)[C@@H]3OC(=O)c2cc(O)c(O)c3c2[C@H]1[C@@](O)(C(=O)O)O3
Activity: Active

O=C(O)C[C@@H]1C(=O)O[C@H]2[C@@H]3OC(=O)c4cc(O)c(O)c(O)c4-c4c(cc(O)c(O)c4O)C(=O)OC[C@H]2O[C@@H](OC(=O)c2cc(O)c(O)c(O)c2)[C@@H]3OC(=O)c2cc(O)c(O)c3c2[C@H]1[C@H](O)C(=O)O3
Activity: Active
